From ChEMBL document CHEMBL2434851, “Squaric acid/4-aminoquinoline conjugates: novel potent antiplasmodial agents” (Eur J Med Chem, 2013) come the findings set out here.

The test system of one series is HEK-293T. Description: Cytotoxicity against HEK293T cells assessed as cell viability after 48 hrs by MTT assay. The series is classed as cell-based. Conditions: Homo sapiens.
Another series has as its system NIH3T3. The experiment in a line: Cytotoxicity against mouse NIH/3T3 cells assessed as cell viability after 48 hrs by MTT assay. It is filed as cell-based. The note with it: NIH3T3, 48 h. (In general: Tetrazolium dyes change colour on reduction, which living cells bring about.)
Series [1] in a line: Inhibition of Plasmodium falciparum falcipain-2 using Z-Leu-Arg-AMC as substrate preincubated for 10 mins followed by substrate addition by spectrofluorometric analysis.
The next series addresses T1, Papain (Carica papaya, UniProt P00784).
T1 sequence (P00784 whole entry): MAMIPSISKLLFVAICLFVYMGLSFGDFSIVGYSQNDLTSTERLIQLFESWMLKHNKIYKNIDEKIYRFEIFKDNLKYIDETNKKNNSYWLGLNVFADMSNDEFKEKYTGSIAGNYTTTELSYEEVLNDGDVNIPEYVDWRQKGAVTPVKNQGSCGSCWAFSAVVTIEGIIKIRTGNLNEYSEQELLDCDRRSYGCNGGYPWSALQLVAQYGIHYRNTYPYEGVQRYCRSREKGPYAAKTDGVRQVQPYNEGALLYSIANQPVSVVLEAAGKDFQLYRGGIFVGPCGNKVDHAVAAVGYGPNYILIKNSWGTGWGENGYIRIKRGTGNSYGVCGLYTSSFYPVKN
Description: Inhibition of papaya papain using Z-Leu-Leu-Arg-AMC as substrate after 30 mins by fluorescence microplate reader analysis.

Another series is described as follows: in vitro. Conditions: human.
The test system of the next series is Plasmodium falciparum. Description: microbe, parasite or virus in culture. Conditions: W2, 48 h.

Description for Plasmodium falciparum: Antiplasmodial activity against ring stage of chloroquine-resistant Plasmodium falciparum W2 infected in human RBC after 48 hrs by flow cytometric analysis
Description for in vitro: Selectivity index, ratio of IC50 for HEK293T cells to IC50 for ring stage of Plasmodium falciparum W2 infected in human RBC

By IC50 is commonly meant the point on the concentration scale where inhibition reaches its midpoint. With `COc1c(NCCNc2ccnc3cc(Cl)ccc23)c(=O)c1=O`, the IC50 with HEK-293T was > 50 µM; in the series on NIH3T3, > 50 µM; in series [1] it was > 10 µM; against Papain, > 10 µM; in the series with Plasmodium falciparum, 1.56 µM. Further, the selectivity ratio in the series “in vitro” was > 32.

As for `CC(C)C[C@H](NC(=O)[C@H]1O[C@@H]1C(=O)O)C(=O)NCCCCN=C(N)N` [E-64], the values for the IC50 (in series [1]; against Papain) were 0.06 µM and 0.007 µM, respectively.

Take `O=c1c(NCCNc2ccnc3cc(Cl)ccc23)c(NCCNc2ccnc3cc(Cl)ccc23)c1=O`: the IC50 with HEK-293T is 5 µM; in the series on NIH3T3, 4.5 µM; on Papain it was > 10 µM; in the series on Plasmodium falciparum it was 0.2 µM. Besides, the selectivity ratio in the series “in vitro” is 25.

`CCCCOc1c(N2CCN(c3ccnc4cc(Cl)ccc34)CC2)c(=O)c1=O`: the IC50 in the series on HEK-293T is > 50 µM; in the series on NIH3T3, > 50 µM; at Papain, > 10 µM; in the series with Plasmodium falciparum it was 7.82 µM. Besides, the selectivity ratio in the series “in vitro” is > 6.

On to `O=C(NCCNc1ccnc2cc(Cl)ccc12)[C@H](Cc1ccccc1)Nc1c(N[C@@H](Cc2ccccc2)C(=O)NCCNc2ccnc3cc(Cl)ccc23)c(=O)c1=O`, for which the IC50 is > 50 µM with HEK-293T; > 50 µM in the series with NIH3T3; > 50 µM in series [1]; > 10 µM on Papain; 0.71 µM with Plasmodium falciparum. Also, the selectivity ratio in the series “in vitro” was > 70.

In the case of `CCCCOc1c(N2CCC(Nc3ccnc4cc(Cl)ccc34)CC2)c(=O)c1=O`, the IC50 with HEK-293T came out at 37.9 µM; in the series with NIH3T3, 45.7 µM; in the series with Plasmodium falciparum, 4.71 µM. Besides, in “in vitro”, the selectivity ratio was 8.

Consider `CCCCOc1c(NCCCNc2ccnc3cc(Cl)ccc23)c(=O)c1=O`, for which the 50% inhibitory concentration (IC50) (in series [1]; on Papain; in the series with Plasmodium falciparum) was > 10 µM in each case.

Turning to `COc1c(NCCCNc2ccnc3cc(Cl)ccc23)c(=O)c1=O`, the IC50 in the series with HEK-293T was > 50 µM; in the series with NIH3T3, > 50 µM; against Papain it was > 10 µM; in the series on Plasmodium falciparum, 1.84 µM. Further, the selectivity ratio in “in vitro” is > 27.

Regarding `CCN(CC)CCCC(C)Nc1ccnc2cc(Cl)ccc12` (stereo not drawn) [CHLOROQUINE], the 50% inhibitory concentration (IC50) in the series with HEK-293T and with NIH3T3 was > 50 µM throughout.

`CCCCOc1c(OCCCC)c(=O)c1=O` [SQUARIC ACID DIBUTYL ESTER]: the 50% inhibitory concentration (IC50) in the series on Plasmodium falciparum is 8.84 µM.

As to `COc1cc(NC(C)CCCNc2c(NCCCC(C)Nc3cc(OC)cc4cccnc34)c(=O)c2=O)c2ncccc2c1` (stereo not drawn), the figures for the IC50 with HEK-293T, in the series with NIH3T3 and in the series with Plasmodium falciparum were > 50 µM, > 50 µM and 2.21 µM, respectively. Moreover, the selectivity ratio in “in vitro” was > 22.

With `CCCCOc1c(NCCCC(C)Nc2cc(OC)cc3cccnc23)c(=O)c1=O` (stereo not drawn), the IC50 with HEK-293T was > 50 µM; in the series on NIH3T3 it was > 50 µM; at Papain, > 10 µM; with Plasmodium falciparum, 18.6 µM. Moreover, the selectivity ratio in the series “in vitro” was > 2.

In the case of `O=c1c(NCCCCNc2ccnc3cc(Cl)ccc23)c(NCCCCNc2ccnc3cc(Cl)ccc23)c1=O`, the IC50 in the series with HEK-293T is > 50 µM; in the series with NIH3T3, > 50 µM; on Papain it was > 10 µM; in the series on Plasmodium falciparum it was 0.095 µM. Also, the selectivity ratio in the series “in vitro” is > 526.

With `O=c1c(N2CCC(Nc3ccnc4cc(Cl)ccc34)CC2)c(N2CCC(Nc3ccnc4cc(Cl)ccc34)CC2)c1=O`, the values for the IC50 in the series on HEK-293T, in the series on NIH3T3 and with Plasmodium falciparum were > 50 µM, > 50 µM and 0.105 µM, respectively. Further, in the series “in vitro”, the selectivity ratio was > 476.

With `O=c1c(NCCCNc2ccnc3cc(Cl)ccc23)c(NCCCNc2ccnc3cc(Cl)ccc23)c1=O`, the IC50 in the series with HEK-293T is > 50 µM; in the series with NIH3T3, > 50 µM; against Papain it was > 10 µM; with Plasmodium falciparum it was 0.099 µM. The selectivity ratio in “in vitro” is > 505.

As for `CCCCOc1c(NCCNc2ccnc3cc(Cl)ccc23)c(=O)c1=O`, the IC50 in the series with HEK-293T is > 50 µM; with NIH3T3, > 50 µM; in series [1], > 10 µM; against Papain, > 10 µM; in the series on Plasmodium falciparum, 2.04 µM. The selectivity ratio in “in vitro” is > 24.
